Data on 21 compounds can be found in US9469584B2, “Method for producing butanol using extractive fermentation” (Butamax Advanced Biofuels LLC, priority 2013, dated 2016).

Structures can show the parent of a compound that is named as a salt.

The term density denotes the mass of a sample divided by its volume.

Test system in the first series: not listed separately
Kind of series: Density of the pure solvent. The series is classed as physicochemical.
Conditions: not given
The method, then:
Wt % of isobutanol in each layer was reported. The density of the pure solvent was also reported. […] Wt. iBuOH (mg) was calculated by wt % i-BuOH×0.5×density of pure solvent. For the aqueous solutions the density of both the pure water and salt solutions were assumed to be 1.0 g/ml. Kd was calculated both from concentration of i-BuOH in the organic/concentration of i-BuOH in the aqueous layer. It was calculated both from the w/w data and w/v data. The sum of the amounts of isobutanol found in both layers was calculated as a check on the data.
As for `CCCCCCCCOC(=O)c1ccccc1C(=O)OCCCCCCCC` [Dioctyl phthlate], the density is 0.985 g/mL.

`CCCCCl` [chlorobutane] yielded a density of 0.886 g/mL. The density values of the last two compounds are within 1.5-fold of each other.

Compound Xylene came in with a density of 0.879 g/mL.

For the compound nonyl phenol, the density came out at 0.937 g/mL.

Staying with this series, now noted: pure solvent.
In turn, `CCCCC(CC)CO` (stereo not drawn) [2-Ethyl-1-hexanol] displayed a density of 0.833 g/mL.

`CCCCCCCCC(CO)CCCCCC` (stereo not drawn) [2-Hexyl-1-decanol (Isofol 16), 2-Hexyl-1-decanol] yielded a density of 0.836 g/mL.

With `CCCCCCC(CO)CCCC` (stereo not drawn) [2-butyl-1-octanol], the density is 0.833 g/mL.

`CC(CCO)CC(C)(C)C` (stereo not drawn) [3,5,5-trimethyl-1-hexanol] displayed a density of 0.824 g/mL. The density values of the last two compounds are within 1.5-fold of each other.

`CC(C)CCCC(C)CCO` (stereo not drawn) [3,7-dimethyl-1-octanol] showed a density of 0.828 g/mL. This density and that of the compound before are within 1.5-fold of each other.

The compound `CCCCC(CC)COC(=O)/C=C\C(=O)OCC(CC)CCCC` (stereo not drawn) [Bis(2-ethylhexyl) maleate] showed a density of 0.944 g/mL.

As for `CCCCC(CC)COP(=O)(O)OCC(CC)CCCC` (stereo not drawn) [Bis(2-ethylhexyl) phosphate], the density was found to be 0.965 g/mL. This density and that of the compound before are within 1.5-fold of each other.

As to `CC(C)=CCCC(C)=CCCC(C)=CCO` [Farnesol], the density amounted to 0.89 g/mL.

For the compound `CCCCCCOCCCCCC` [Hexyl Ether], the density worked out at 0.793 g/mL.

For the compound `CCCCC(CC)COC(=O)CCCCC(=O)OCC(CC)CCCC` (stereo not drawn) [bis(2-ethylhexyl)adipate], the density turned out to be 0.925 g/mL.

Regarding `CCCCC(CC)COC(=O)CCCCCCCCC(=O)OCC(CC)CCCC` (stereo not drawn) [bis(2-ethylhexyl)sebacate], the density is 0.914 g/mL. This density and that of the compound before are within 1.5-fold of each other.

In turn, `CCCCCCCCCCCC(=O)OCCCC` [butyl dodecanoate] yielded a density of 0.855 g/mL.

Compound `CCCCCCCCOC(=O)c1ccc(C(=O)OCCCCCCCC)cc1` [dioctyl terephthalate] displayed a density of 0.986 g/mL.

Regarding `CCCCCCOC(=O)c1ccccc1O` [hexyl salicylate], the density amounted to 1.04 g/mL. This density and that of the compound before are within 1.5-fold of each other.

As to `CC(C)CCOCCC(C)C` [i-Amyl Ether], the density turned out to be 0.78 g/mL.

For `CCCCCCCC/C=C\CCCCCCCCO` [oleyl alcohol, reference compound], the density was 0.849 g/mL.

As for `CC1COC(=O)O1` (stereo not drawn) [propylene carbonate], the density is 1.2 g/mL.

A further series deals with ethanologen (Ethanol Red).
Experiment: not given
Conditions: not given
As to `CCCCC(CC)COP(=O)(O)OCC(CC)CCCC` (stereo not drawn) [Bis(2-ethylhexyl) phosphate], the “Glucose (g/L) 5.00 hrs Run 1” value is on record as 20.3/20.6 g/L, the “Glucose (g/L) 5.00 hrs Run 2” value is recorded as 20.3/20.6 g/L, the “Glucose (g/L) […] Run 1” value is recorded as 20.0/20.2 g/L and the “Glucose (g/L) […] Run 2” value is recorded as 20.0/20.2 g/L.

nonyl phenol: the “Glucose (g/L) 5.00 hrs Run 1” value is 20.3/20.3 g/L, the “Glucose (g/L) 5.00 hrs Run 2” value is given as 20.3/20.3 g/L, the “Glucose (g/L) […] Run 1” value was 20.6/20.0 g/L and the “Glucose (g/L) […] Run 2” value is given as 20.6/20.0 g/L.

The series is the same for the next values; noted with them: Saccharomyces cerevisiae.
Regarding `CCCCC(CC)COC(=O)CCCCC(=O)OCC(CC)CCCC` (stereo not drawn) [bis(2-ethylhexyl)adipate], the “Glucose (g/L) 5.50 hrs Run 1” value is listed as 0.0/0.0 g/L, the “Glucose (g/L) 5.50 hrs Run 2” value is given as 0.0/0.0 g/L, the “Glucose (g/L) […] Run 1” value is reported as 0.0/0.0 g/L and the “Glucose (g/L) […] Run 2” value is on record as 0.0/0.0 g/L.
